Measured values published in US8669054B2, “Marker for gastric cancer and method for detecting gastric cancer” (The Chinese University of Hong Kong, priority 2010, dated 2014).

System: PAX5 gene expression in methylated GC and CRC cell lines
Assay: Demethylation treatment with 5-Aza; PAX5 expression by semiquantitative RT-PCR
Assay type: cell-based, human
Conditions: 2 μM 5-Aza for 5 days; AGS, MKN28, KatoIII, HCT116, SW620 and SW480
Procedure: Semiquantitative RT-PCR was performed in a total volume of 25 μL reaction containing GeneAmp 1×PCR Buffer II (Applied Biosystems), 2.5 mM MgCl2, 200 μM each of dNTP, 200 nM each of primers, 0.5 U of AmpliTaq Gold DNA polymerase (Applied Biosystems) and 30˜50 ng cDNA. […] The PCR bands were visualized under ultraviolet light and photographed. The expression of the target gene was normalized by the expression of house keeping gene β-actin, which served as an internal control. […] Cells were then treated with 2 μM 5-aza-2′-deoxycytidine (“5-Aza”) (Sigma-Aldrich) for 5 days. The 5-Aza was replenished every day.

Nc1ncn([C@H]2C[C@H](O)[C@@H](CO)O2)c(=O)n1 [5-Aza, 5-aza-2′-deoxycytidine]
PAX5 gene expression after 5-Aza demethylation treatment (RT-PCR): restore expression
